# Results as given in ChEMBL document CHEMBL1201862, “PubChem BioAssay data set” (2004).
# Activity calls are given as the source filed them.
# Tests used:
# [1] = target: T1, Nucleotide-binding oligomerization domain-containing protein 1 (Homo sapiens, UniProt Q9Y239); experiment: SAR analysis of compounds that inhibit NOD1 - Set 3. [Related pubchem assays (depositor defined):AID1566, AID1575, AID1578, AID1849, AID1852, AID2333, AID2335, AID2466]; type: functional
# T1 sequence (Q9Y239 whole entry): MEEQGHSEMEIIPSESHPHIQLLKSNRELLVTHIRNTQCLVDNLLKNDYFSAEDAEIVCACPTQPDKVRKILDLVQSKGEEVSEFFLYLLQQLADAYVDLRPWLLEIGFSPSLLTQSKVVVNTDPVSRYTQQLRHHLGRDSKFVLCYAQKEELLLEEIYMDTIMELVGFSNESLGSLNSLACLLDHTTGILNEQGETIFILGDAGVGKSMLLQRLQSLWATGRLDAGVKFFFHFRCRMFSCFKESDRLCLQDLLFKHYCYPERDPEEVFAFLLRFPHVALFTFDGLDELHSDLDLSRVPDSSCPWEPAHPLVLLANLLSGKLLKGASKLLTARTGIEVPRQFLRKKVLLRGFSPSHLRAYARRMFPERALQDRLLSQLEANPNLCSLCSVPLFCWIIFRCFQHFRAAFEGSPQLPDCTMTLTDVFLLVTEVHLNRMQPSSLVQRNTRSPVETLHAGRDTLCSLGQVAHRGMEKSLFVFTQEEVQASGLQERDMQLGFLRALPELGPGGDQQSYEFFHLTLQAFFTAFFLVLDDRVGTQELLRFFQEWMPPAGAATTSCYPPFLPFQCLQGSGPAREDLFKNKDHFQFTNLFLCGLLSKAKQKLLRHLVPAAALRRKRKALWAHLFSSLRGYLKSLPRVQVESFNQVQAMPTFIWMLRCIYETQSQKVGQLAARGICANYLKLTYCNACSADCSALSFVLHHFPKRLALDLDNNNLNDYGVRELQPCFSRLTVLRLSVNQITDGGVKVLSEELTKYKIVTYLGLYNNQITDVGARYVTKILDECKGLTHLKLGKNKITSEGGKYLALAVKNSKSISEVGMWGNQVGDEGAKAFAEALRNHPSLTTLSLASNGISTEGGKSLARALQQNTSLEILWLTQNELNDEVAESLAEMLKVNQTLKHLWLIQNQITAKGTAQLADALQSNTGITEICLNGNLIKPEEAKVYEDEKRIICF
# HEK293 [2] = experiment: SAR analysis of compounds that are cytotoxic to HEK293 - Set 2. [Related pubchem assays (depositor defined):AID1575, AID1578, AID1849, AID2001, AID2333, AID2334, AID2335, AID2337, AID2800]; type: functional, cell-based; conditions: Homo sapiens
# [3] = target: T2, Nucleotide-binding oligomerization domain-containing protein 2 (Homo sapiens, UniProt Q9HC29); experiment: NOD2 inhibitors, SAR follow-up, set 2 (AID 2475); type: functional
# T2 sequence (Q9HC29 whole entry, the tested form may be a part): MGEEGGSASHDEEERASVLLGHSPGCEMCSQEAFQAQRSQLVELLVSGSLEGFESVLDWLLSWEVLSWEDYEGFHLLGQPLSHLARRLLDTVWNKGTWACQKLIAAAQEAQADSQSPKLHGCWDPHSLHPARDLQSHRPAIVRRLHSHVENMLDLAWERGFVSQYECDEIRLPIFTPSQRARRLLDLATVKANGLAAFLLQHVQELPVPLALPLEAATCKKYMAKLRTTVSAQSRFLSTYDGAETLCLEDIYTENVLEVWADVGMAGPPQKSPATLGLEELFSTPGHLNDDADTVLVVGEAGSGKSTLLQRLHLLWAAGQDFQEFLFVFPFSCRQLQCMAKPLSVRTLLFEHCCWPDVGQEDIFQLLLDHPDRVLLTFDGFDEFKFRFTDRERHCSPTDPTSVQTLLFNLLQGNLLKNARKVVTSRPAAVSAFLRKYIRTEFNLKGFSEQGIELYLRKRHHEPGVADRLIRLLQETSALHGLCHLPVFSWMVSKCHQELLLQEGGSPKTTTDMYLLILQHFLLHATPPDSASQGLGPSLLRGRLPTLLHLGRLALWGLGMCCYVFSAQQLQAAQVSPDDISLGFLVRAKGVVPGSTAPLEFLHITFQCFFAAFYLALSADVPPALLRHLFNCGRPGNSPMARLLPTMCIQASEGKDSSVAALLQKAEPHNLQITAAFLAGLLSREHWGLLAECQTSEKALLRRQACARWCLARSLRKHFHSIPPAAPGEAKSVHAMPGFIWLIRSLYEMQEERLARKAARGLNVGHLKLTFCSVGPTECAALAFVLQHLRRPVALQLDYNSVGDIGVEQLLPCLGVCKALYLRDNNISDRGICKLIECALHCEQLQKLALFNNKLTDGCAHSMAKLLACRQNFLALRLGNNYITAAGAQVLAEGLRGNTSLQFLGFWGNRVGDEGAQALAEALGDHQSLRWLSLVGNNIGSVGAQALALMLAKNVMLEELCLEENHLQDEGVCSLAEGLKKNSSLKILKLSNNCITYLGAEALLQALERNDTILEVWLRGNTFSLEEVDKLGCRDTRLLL
# [4] = target: T2, Nucleotide-binding oligomerization domain-containing protein 2; experiment: NOD2 signaling inhibitors, analog potency, SAR follow-up, cell-based, set 3 (AID 2799); type: functional
# HEK293 [5] = experiment: SAR analysis of compounds that are cytotoxic to HEK293 - Set 3. [Related pubchem assays (depositor defined):AID1575, AID1578, AID1848, AID1849, AID2001, AID2333, AID2334, AID2335, AID2337, AID2469]; type: functional, cell-based; conditions: Homo sapiens
# Interleukin-8 [6] = target: T3, Interleukin-8 (Homo sapiens, UniProt P10145); experiment: SAR analysis of GM-Tri-DAP induced IL-8 secretion in MCF-7/NOD1 cells - Set 2. [Related pubchem assays (depositor defined):AID1575, AID1578, AID2333]; type: functional, cell-based
# T3 sequence (P10145 whole entry): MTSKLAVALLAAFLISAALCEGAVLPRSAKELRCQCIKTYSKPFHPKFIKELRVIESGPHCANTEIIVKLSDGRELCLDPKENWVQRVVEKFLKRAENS
# [7] = target: T1, Nucleotide-binding oligomerization domain-containing protein 1; experiment: SAR analysis of NF-kappaB dependent luciferase using DAP as an inducer - Set 2. [Related pubchem assays (depositor defined):AID1566, AID1575, AID1578, AID1579, AID1849, AID1852, AID2264]; type: functional
# Tumor necrosis factor = Tumor necrosis factor (Homo sapiens, UniProt P01375); experiment: TNFa-triggered NF-kB activation inhibitors, SAR follow-up, cell-based, set 3 (AID 2801); type: functional
# Tumor necrosis factor, sequence (P01375 whole entry): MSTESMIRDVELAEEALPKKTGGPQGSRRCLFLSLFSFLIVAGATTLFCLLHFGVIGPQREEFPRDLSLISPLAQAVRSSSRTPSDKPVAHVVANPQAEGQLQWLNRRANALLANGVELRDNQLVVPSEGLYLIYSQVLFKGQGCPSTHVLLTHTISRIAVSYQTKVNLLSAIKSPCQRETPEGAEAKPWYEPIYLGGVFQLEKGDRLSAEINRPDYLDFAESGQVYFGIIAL
# Interleukin-8 [8] = target: T3, Interleukin-8; experiment: SAR analysis of Tumor necrosis factor alpha (TNF-alpha) induced IL-8 secretion in MCF-7/NOD1 cells - Set 2. [Related pubchem assays (depositor defined):AID1575, AID2250, AID2260]; type: functional, cell-based
# [9] = target: T1, Nucleotide-binding oligomerization domain-containing protein 1; experiment: SAR analysis of compounds that inhibit NOD1 - Set 2. [Related pubchem assays (depositor defined):AID1566, AID1575, AID1578, AID1849, AID1852, AID2333, AID2335, AID2798]; type: functional
# [10] = target: T4, G-protein coupled receptor 35 (Homo sapiens, UniProt Q9HC97); experiment: SAR analysis of Antagonists of the GPR35 Receptor using an Image-Based Assay - Set 3. [Related pubchem assays (depositor defined):AID2013, AID2026]; type: functional
# T4 sequence (Q9HC97 whole entry): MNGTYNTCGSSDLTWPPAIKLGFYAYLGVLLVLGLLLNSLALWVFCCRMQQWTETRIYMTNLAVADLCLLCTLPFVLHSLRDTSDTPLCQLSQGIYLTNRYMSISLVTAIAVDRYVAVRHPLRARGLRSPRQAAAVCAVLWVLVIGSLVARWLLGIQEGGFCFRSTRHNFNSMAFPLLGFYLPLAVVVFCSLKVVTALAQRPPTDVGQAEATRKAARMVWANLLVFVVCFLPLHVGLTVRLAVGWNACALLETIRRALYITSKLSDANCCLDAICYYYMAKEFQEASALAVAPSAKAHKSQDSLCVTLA
# [11] = target: T4, G-protein coupled receptor 35; experiment: SAR analysis of Agonists of the GPR35 Receptor using an Image-Based Assay - Set 2. [Related pubchem assays (depositor defined):AID2013, AID2026]; type: functional
# Cannabinoid receptor 1 [12] = target: T5, Cannabinoid receptor 1 (Homo sapiens, UniProt P21554); experiment: SAR analysis of agonists of the Cannabinoid Receptor 1 using an Image-Based Assay - Set 2. [Related pubchem assays (depositor defined):AID2013, AID2026]; type: functional
# T5 sequence (P21554 whole entry): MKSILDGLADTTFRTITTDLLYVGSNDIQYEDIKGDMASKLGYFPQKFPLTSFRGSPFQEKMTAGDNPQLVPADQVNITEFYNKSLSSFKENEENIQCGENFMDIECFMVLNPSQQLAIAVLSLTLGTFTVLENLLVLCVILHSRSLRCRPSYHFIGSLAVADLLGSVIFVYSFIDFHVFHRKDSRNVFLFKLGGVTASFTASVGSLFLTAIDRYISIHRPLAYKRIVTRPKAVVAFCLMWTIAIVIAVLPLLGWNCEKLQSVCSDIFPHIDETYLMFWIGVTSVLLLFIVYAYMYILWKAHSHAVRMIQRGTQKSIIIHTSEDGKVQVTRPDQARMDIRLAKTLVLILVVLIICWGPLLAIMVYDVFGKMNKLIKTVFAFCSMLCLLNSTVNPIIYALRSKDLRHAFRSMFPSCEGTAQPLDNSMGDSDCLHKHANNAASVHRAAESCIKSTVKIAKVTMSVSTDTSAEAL
# [13] = target: T6, G-protein coupled receptor 55 (Homo sapiens, UniProt Q9Y2T6); experiment: GPR55 antagonist potency of analogs, SAR follow-up, imaging, U2OS, beta-arrestin-GFP, LPI agonist, set 2 (AID 2820); type: functional
# T6 sequence (Q9Y2T6 whole entry): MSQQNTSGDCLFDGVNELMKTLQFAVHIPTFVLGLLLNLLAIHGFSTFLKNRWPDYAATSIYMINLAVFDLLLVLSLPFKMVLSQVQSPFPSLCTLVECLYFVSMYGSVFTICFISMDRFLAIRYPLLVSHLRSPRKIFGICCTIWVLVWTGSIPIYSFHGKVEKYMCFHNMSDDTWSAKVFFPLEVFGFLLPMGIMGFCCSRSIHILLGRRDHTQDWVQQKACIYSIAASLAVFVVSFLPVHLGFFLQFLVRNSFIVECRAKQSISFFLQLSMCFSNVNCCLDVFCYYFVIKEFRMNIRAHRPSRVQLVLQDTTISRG
# Cannabinoid receptor 2 [14] = target: T7, Cannabinoid receptor 2 (Homo sapiens, UniProt P34972); experiment: SAR analysis of agonists of the Cannabinoid Receptor 2 using an Image-Based Assay. [Related pubchem assays (depositor defined):AID2013, AID2026]; type: functional
# T7 sequence (P34972 whole entry): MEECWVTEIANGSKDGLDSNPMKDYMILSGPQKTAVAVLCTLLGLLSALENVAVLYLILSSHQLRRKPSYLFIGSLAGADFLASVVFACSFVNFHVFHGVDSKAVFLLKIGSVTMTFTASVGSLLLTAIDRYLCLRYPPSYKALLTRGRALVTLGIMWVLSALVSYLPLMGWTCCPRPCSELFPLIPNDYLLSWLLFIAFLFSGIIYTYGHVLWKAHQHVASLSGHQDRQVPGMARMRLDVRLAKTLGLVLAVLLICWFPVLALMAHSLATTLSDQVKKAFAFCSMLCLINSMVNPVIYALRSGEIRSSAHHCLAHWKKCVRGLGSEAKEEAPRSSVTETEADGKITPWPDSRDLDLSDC
# Cannabinoid receptor 1 [15] = target: T5, Cannabinoid receptor 1; experiment: SAR analysis of antagonists of the Cannabinoid Receptor 1 using an Image-Based Assay - Set 2. [Related pubchem assays (depositor defined):AID2013, AID2026]; type: functional
# [16] = target: T6, G-protein coupled receptor 55; experiment: GPR55 antagonists blocking LPI-driven arrestin recruitment, primary screen, imaging, U2OS, beta-arrestin-GFP, LPI agonist (AID 2013); type: functional;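 further: antagonist potency measured as reduced agonist-driven arrestin aggregation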
# Cannabinoid receptor 2 [17] = target: T7, Cannabinoid receptor 2; experiment: SAR analysis of antagonists of the Cannabinoid Receptor 2 using an Image-Based Assay. [Related pubchem assays (depositor defined):AID2013, AID2026]; type: functional
# [18] = target: T8, Ubiquitin-conjugating enzyme E2 N (Homo sapiens, UniProt P61088); type: functional
# T8 sequence (P61088 whole entry): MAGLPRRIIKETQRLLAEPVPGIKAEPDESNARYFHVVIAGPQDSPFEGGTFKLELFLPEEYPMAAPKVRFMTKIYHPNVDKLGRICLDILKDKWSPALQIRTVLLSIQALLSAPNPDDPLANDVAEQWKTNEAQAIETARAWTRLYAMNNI
# Bcl-2-related protein A1 = target: T9, Bcl-2-related protein A1 (Mus musculus, UniProt Q07440); type: functional;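 further: confirmatory dose–response counterscreen on Bfl-1, used to check hits from a UBC13 polyubiquitin inhibitor campaign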
# T9 sequence (Q07440 whole entry): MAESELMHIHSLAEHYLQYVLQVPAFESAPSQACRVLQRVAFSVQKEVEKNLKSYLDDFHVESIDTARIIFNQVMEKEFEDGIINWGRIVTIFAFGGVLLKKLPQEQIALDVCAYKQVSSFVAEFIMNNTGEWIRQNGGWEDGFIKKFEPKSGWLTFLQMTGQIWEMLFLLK
# [19] = target: T8, Ubiquitin-conjugating enzyme E2 N; type: functional; remark: listed apart in the source
# cells [20] = type: functional, cell-based
# [21] = target: T10, Induced myeloid leukemia cell differentiation protein Mcl-1 (Homo sapiens, UniProt Q07820); type: functional
# T10 sequence (Q07820 whole entry, the tested form may be a part): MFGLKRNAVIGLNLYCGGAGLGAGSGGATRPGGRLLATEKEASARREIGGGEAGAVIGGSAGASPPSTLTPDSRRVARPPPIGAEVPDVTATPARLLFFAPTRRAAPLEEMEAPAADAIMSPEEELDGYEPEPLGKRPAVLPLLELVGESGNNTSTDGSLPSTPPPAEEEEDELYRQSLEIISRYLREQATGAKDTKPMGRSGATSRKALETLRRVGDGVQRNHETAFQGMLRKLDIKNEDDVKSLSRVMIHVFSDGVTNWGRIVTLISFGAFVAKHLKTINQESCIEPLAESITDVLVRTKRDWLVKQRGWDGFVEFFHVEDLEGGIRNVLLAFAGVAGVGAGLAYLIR
# [22] = target: T11, Carboxy-terminal domain RNA polymerase II polypeptide A small phosphatase 1 (Homo sapiens, UniProt Q9GZU7); experiment: inhibitors of CTDSP1, concentration-response testing, biochemical assay, absorbance-based, actives from ultra-high-throughput screening (AID 540297); type: functional
# T11 sequence (Q9GZU7 whole entry): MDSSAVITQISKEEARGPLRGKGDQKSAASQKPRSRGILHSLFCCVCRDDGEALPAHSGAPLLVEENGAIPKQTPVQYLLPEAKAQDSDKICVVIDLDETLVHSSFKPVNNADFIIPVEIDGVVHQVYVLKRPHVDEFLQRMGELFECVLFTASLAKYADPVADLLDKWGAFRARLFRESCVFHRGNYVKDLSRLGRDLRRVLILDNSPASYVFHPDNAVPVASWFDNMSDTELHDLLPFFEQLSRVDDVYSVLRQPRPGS
# cells [23] = type: functional, cell-based; remark: listed apart in the source
# [24] = target: T10, Induced myeloid leukemia cell differentiation protein Mcl-1; experiment: MCL1-BIM BH3 interaction inhibitors, dose response, biochemical, fluorescence polarization, BIM-BH3 peptide, 1536-well (AID 2217)
# [25] = target: Intestinal-type alkaline phosphatase (Mus musculus, UniProt P24822); experiment: PubChem AID 488785; type: functional
# Intestinal-type alkaline phosphatase (Mus musculus, UniProt P24822), sequence (P24822 whole entry): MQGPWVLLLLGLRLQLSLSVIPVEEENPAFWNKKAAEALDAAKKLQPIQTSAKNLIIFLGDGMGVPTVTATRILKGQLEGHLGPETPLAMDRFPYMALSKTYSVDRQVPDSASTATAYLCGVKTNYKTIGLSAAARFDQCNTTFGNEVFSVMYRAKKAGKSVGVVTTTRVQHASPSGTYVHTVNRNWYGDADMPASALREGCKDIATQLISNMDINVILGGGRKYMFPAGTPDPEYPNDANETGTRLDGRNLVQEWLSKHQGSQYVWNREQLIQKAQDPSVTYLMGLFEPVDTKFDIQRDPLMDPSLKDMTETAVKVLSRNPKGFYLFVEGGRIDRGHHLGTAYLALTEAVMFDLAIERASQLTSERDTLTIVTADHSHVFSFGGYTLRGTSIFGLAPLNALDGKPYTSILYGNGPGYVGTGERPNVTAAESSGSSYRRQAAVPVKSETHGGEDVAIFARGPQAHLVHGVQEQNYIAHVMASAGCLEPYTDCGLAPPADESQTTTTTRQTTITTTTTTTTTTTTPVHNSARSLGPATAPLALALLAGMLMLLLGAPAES
# Bcl-2-like protein 1 = Bcl-2-like protein 1 (Homo sapiens, UniProt Q07817); experiment: BCL-XL inhibitors, dose response, selectivity assay for MCL1 inhibitor project, biochemical, fluorescence polarization, 1536-well (AID 2218)
# Bcl-2-like protein 1, sequence (Q07817 whole entry): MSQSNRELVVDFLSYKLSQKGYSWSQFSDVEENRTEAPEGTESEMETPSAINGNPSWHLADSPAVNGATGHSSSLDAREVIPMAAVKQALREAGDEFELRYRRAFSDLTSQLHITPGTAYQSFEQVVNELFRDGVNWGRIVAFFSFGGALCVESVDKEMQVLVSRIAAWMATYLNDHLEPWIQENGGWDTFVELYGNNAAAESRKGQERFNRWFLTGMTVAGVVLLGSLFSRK
# [26] = target: T12, Alkaline phosphatase, tissue-nonspecific isozyme (Homo sapiens, UniProt P05186); experiment: TNAP enzyme inhibition by screening hits, dose response, selectivity assay for mouse IAP inhibitor project, biochemical, human TNAP, uHTS hits (AID 488906); type: functional
# T12 sequence (P05186 whole entry): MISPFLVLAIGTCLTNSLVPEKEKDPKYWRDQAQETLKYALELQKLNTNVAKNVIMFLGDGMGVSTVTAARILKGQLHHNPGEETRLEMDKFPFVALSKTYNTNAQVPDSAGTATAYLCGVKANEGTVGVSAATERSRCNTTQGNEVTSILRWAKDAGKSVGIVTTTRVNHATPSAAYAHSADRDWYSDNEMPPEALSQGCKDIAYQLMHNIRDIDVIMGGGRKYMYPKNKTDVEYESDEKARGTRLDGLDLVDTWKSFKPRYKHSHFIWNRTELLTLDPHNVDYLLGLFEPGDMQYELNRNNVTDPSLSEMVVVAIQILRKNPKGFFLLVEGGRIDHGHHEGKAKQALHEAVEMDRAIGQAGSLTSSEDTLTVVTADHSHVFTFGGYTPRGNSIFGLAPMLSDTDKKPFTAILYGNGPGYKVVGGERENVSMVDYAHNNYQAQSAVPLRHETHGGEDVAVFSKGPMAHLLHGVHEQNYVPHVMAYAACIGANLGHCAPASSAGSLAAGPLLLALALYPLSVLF
# [27] = target: Intestinal-type alkaline phosphatase (Homo sapiens, UniProt P09923); experiment: activation of human intestinal alkaline phosphatase – biochemical, dose response (AID 488873); type: functional
# Intestinal-type alkaline phosphatase (Homo sapiens, UniProt P09923), sequence (P09923 whole entry): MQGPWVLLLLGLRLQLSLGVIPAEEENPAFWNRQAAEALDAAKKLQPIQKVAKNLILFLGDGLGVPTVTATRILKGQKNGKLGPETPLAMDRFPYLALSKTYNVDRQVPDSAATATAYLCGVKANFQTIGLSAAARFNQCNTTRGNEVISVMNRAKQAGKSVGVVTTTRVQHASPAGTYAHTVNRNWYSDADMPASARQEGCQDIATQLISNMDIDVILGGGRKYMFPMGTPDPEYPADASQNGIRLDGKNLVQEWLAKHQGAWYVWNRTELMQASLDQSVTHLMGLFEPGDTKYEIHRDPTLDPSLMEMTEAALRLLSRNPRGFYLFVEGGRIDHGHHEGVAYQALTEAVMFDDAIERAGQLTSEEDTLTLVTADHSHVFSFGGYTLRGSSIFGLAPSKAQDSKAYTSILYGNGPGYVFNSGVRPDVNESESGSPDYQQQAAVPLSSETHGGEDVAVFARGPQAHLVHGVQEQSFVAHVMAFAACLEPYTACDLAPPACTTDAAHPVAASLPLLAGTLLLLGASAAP
compound,measurement,setting,value
CC(C)n1c(SCCCc2ccccc2)nc2c1c(=O)[nH]c(=O)n2C,IC50,[1],> 20 µM (inactive)
same,IC50,HEK293 [2],> 20 µM (inactive)
same,IC50,[3],17.6 µM (active)
same,IC50,[4],> 20 µM (inactive)
same,IC50,HEK293 [5],> 20 µM (inactive)
same,IC50,Interleukin-8 [6],> 25 µM (inactive)
same,IC50,[7],> 25 µM (inactive)
same,IC50,Tumor necrosis factor,> 20 µM (inactive)
same,IC50,Interleukin-8 [8],> 25 µM (inactive)
same,IC50,[9],12.3 µM (active)
CC1=CC(C)(C)N2C(=O)C3(SCC(=O)N3c3ccc(O)cc3)c3cc(C)cc1c32 (stereo not given),IC50,[10],> 32 µM (inactive)
same,EC50,[11],> 32 µM (inactive)
same,EC50,Cannabinoid receptor 1 [12],> 32 µM (inactive)
same,IC50,[13],2.72 µM (active)
same,EC50,Cannabinoid receptor 2 [14],> 32 µM (inactive)
same,IC50,Cannabinoid receptor 1 [15],> 32 µM (inactive)
same,IC50,[16],4.1 µM (active)
same,IC50,Cannabinoid receptor 2 [17],> 32 µM (inactive)
CC1(C)Cc2c(sc(NC(=O)C(=O)NCC3CCCO3)c2C(N)=O)CO1 (stereo not given),IC50,[18],4.28 µM (active)
same,IC50,Bcl-2-related protein A1,> 20 µM (inactive)
same,IC50,[19],2.18 µM (active)
O=[N+]([O-])c1cc(S(=O)(=O)c2ccc(O)c([N+](=O)[O-])c2)ccc1O,EC50,cells [20],> 350 µM (not active)
same,IC50,[21],2.82 µM (active)
same,IC50,[22],3.31 µM (active)
same,EC50,cells [23],> 350 µM (not active)
same,IC50,[24],12.5 µM (not active)
same,IC50,[25],5.39 µM (active)
same,IC50,Bcl-2-like protein 1,> 109 µM (not active)
same,IC50,[26],> 100 µM (inactive)
same,EC50,[27],> 100 µM (inactive)
